Where only a bound is given, the exact number is not on record here.

The target of one assay is T1, human GLP-1R (Homo sapiens, UniProt P43220).
T1 construct: host or cells: HEK293
T1 sequence (P43220 24-463): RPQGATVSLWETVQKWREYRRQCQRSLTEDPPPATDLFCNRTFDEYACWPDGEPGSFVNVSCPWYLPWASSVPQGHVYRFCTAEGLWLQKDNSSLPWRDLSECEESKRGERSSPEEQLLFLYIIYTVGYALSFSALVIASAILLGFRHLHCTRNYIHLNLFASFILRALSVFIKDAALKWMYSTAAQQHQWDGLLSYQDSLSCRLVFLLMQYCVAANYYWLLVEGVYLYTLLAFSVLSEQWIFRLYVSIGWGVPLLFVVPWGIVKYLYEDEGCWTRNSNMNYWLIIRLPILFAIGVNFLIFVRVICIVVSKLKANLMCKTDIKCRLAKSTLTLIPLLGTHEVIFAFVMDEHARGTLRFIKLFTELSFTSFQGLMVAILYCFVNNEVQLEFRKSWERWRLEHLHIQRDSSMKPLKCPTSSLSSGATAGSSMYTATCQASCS
Put plainly: GLP-1R cAMP assay (Example B1a, HTRF, 30 min at room temperature). It counts as cell-based. As to conditions: Table 1d, stereoisomer pairs; read-out: EC50. The procedure:
Assay was carried out with HEK293 expressing human GLP-1R using HTRF assay, developed by Wuxi Apptec. The method is a competitive assay between native cAMP produced by the cells and exogenous cAMP labeled with a proprietary dye d2. The tracer binding is visualized by a mAb anti-cAMP labeled with Cryptate. The signal (i.e. energy transfer) is inversely proportional to the concentration of CAMP in either standard or experimental sample. Compounds were tested in the absence of BETP. Ten microliter of cell suspension in assay buffer (5 mM HEPES, 500 μM IBMX, 0.1% BSA) were added to each well (1,000 cells per well) in a low volume 384-well plate for the assay. Serially diluted compounds were added in 100 nL volume to duplicate wells, by Labcyte Echo. GLP-1 (7-37) was used as positive control. Assay plate was incubated for 30 minutes at room temperature. Stock of cAMP Detection Solution was prepared by mixing 38 parts of cAMP lysis buffer, 1 part of cAMP-D2, 1 part of anti-cAMP cryptate reagent (Cisbio #62AM4PEJ). Ten microliter of the cAMP Detection Solution was added to each well, and the assay plate was incubated for 1 hour at room temperature in the dark. Plates were read on Envision plate reader. The data were analyzed by ScreenUltra in Dotmatics, with % activation expressed using following formula: (Well data−negative control)/(postive control−negative control)*100. Dose response curves were plotted and EC50 values calculated by non-linear regression using 4-parameter fit.
Turning to `Cc1cc(-n2nc3c(c2-n2ccn(-c4ccc5c(cnn5C)c4F)c2=O)[C@H]2COC[C@@H](C3)N2C(=O)c2cc3cc([C@H]4CCOC(C)(C)C4)ccc3n2[C@@]2(c3noc(=O)[nH]3)C[C@@H]2C)cc(C)c1F` [Compound 120, 3-((1S,2S)-1-(5-((S)-2,2-dimethyltetrahydro-2H-pyran-4-yl)-2-((4S,8R)-3-(3-(4-fluoro-1-methyl-1H-indazol-5-yl)-2-oxo-2,3-dihydro-1H-imidazol-1-yl)-2-(4-fluoro-3,5-dimethylphenyl)-2,4,5,7,8,9-hexahydro-4,8-epiminooxocino [5,4-c]pyrazole-10-carbonyl)-1H-indol-1-yl)-2-methylcyclopropyl)-1,2,4-oxadiazol-5(4H)-one], the EC50 is greater than 10000 nM.

Still in this assay, the particulars now being: cAMP accumulation in HEK293 expressing human GLP-1R, no BETP, 30 min room temperature (Method B1a, compounds ID 1-609), Table 1; read-out: EC50.
For the compound `Cc1cc(-n2nc3c(c2-n2ccn(-c4ccc5c(cnn5C)c4F)c2=O)[C@@H]2CC[C@H](C3)N2C(=O)c2cc3cc([C@H]4CCOC(C)(C)C4)ccc3n2C2(c3nnn[nH]3)CC2)cc(C)c1F` [Compound 118, 1-((4S,7R)-9-(1-(1-(1H-tetrazol-5-yl)cyclopropyl)-5-((S)-2,2-dimethyltetrahydro-2H-pyran-4-yl)-1H-indole-2-carbonyl)-2-(4-fluoro-3,5-dimethylphenyl)-2,4,5,6,7,8-hexahydro-4,7-epiminocyclohepta [c]pyrazol-3-yl)-3-(4-fluoro-1-methyl-1H-indazol-5-yl)-1H-imidazol-2 (3H)-one], the EC50 was determined as 452 nM.

For `Cc1cc(-n2nc3c(c2-n2ccn(-c4ccc5nnccc5c4)c2=O)[C@@H]2CC[C@H](C3)N2C(=O)c2cc3cc([C@H]4CCOC(C)(C)C4)ccc3n2C2(c3noc(=O)[nH]3)CC2)cc(C)c1F` [Compound 119, 3-[1-[2-[(1S,8R)-3-(3-cinnolin-6-yl-2-oxo-imidazol-1-yl)-4-(4-fluoro-3,5-dimethyl-phenyl)-4,5,11-triazatricyclo[6.2.1.02,6]undeca-2,5-diene-11-carbonyl]-5-[(4S)-2,2-dimethyltetrahydropyran-4-yl]indol-1-yl]cyclopropyl]-4H-1,2,4-oxadiazol-5-one], the concentration for a half-maximal effect (EC50) was 2280 nM.

With `Cc1cc(-n2nc3c(c2-n2ccn(-c4ccc5c(cnn5C)c4F)c2=O)[C@H]2COC[C@@H](C3)N2C(=O)c2cc3cc([C@H]4CCOC(C)(C)C4)ccc3n2[C@@]2(c3noc(=O)[nH]3)C[C@@H]2C)cc(C)c1F` [Compound 120, 3-((1S,2S)-1-(5-((S)-2,2-dimethyltetrahydro-2H-pyran-4-yl)-2-((4S,8R)-3-(3-(4-fluoro-1-methyl-1H-indazol-5-yl)-2-oxo-2,3-dihydro-1H-imidazol-1-yl)-2-(4-fluoro-3,5-dimethylphenyl)-2,4,5,7,8,9-hexahydro-4,8-epiminooxocino [5,4-c]pyrazole-10-carbonyl)-1H-indol-1-yl)-2-methylcyclopropyl)-1,2,4-oxadiazol-5(4H)-one], the EC50 is greater than 10000 nM.

As to `Cc1cc(-n2nc3c(c2-n2ccn(-c4ccc5c(cnn5C)c4F)c2=O)[C@@H]2CC[C@H](C3)N2C(=O)c2cc3cc([C@H]4CCOC(C)(C)C4)ccc3n2C(=O)c2noc(=O)[nH]2)cc(C)c1F` [Compound 122, 3-[5-[(4S)-2,2-dimethyltetrahydropyran-4-yl]-2-[(1S,8R)-4-(4-fluoro-3,5-dimethyl-phenyl)-3-[3-(4-fluoro-1-methyl-indazol-5-yl)-2-oxo-imidazol-1-yl]-4,5,11-triazatricyclo[6.2.1.02,6]undeca-2,5-diene-11-carbonyl]indole-1-carbonyl]-4H-1,2,4-oxadiazol-5-one], the EC50 was greater than 10000 nM. Same read-out and setting: the value for `Cc1cc(-n2nc3c(c2-n2ccn(-c4ccc5cnncc5c4)c2=O)[C@@H]2CC[C@H](C3)N2C(=O)c2cc3cc([C@H]4CCOC(C)(C)C4)ccc3n2C2(c3noc(=O)[nH]3)CC2)cc(C)c1F` [Compound 124, 3-(1-(5-((S)-2,2-dimethyltetrahydro-2H-pyran-4-yl)-2-((4S,7R)-2-(4-fluoro-3,5-dimethylphenyl)-3-(2-oxo-3-(phthalazin-6-yl)-2,3-dihydro-1H-imidazol-1-yl)-2,4,5,6,7,8-hexahydro-4,7-epiminocyclohepta [c]pyrazole-9-carbonyl)-1H-indol-1-yl)cyclopropyl)-1,2,4-oxadiazol-5 (4H)-one] was 1380 nM; that for `Cc1cc(-n2nc3c(c2-n2ccn(-c4cccc(C(N)=O)c4F)c2=O)[C@@H]2CC[C@H](C3)N2C(=O)c2cc3cc([C@H]4CCOC(C)(C)C4)ccc3n2C2(c3noc(=O)[nH]3)CC2)cc(C)c1F` [Compound 125, 3-[3-[(1S,8R)-11-[5-[(4S)-2,2-dimethyltetrahydropyran-4-yl]-1-[1-(5-oxo-4H-1,2,4-oxadiazol-3-yl)cyclopropyl]indole-2-carbonyl]-4-(4-fluoro-3,5-dimethyl-phenyl)-4,5,11-triazatricyclo[6.2.1.02,6]undeca-2,5-dien-3-yl]-2-oxo-imidazol-1-yl]-2-fluoro-benzamide] was greater than 10000 nM; that for `Cc1cc(-n2nc3c(c2-n2ccn(-c4ccc5c(cnn5C)c4F)c2=O)[C@@H]2CC[C@H](C3)N2C(=O)c2cc3ccc(C4CCOC(C)(C)C4)cc3nc2C2(c3noc(=O)[nH]3)CC2)cc(C)c1F` (stereo partly drawn) [Compound 126, 3-[1-[7-(2,2-dimethyltetrahydropyran-4-yl)-3-[(1S,8R)-4-(4-fluoro-3,5-dimethyl-phenyl)-3-[3-(4-fluoro-1-methyl-indazol-5-yl)-2-oxo-imidazol-1-yl]-4,5,11-triazatricyclo[6.2.1.02,6]undeca-2,5-diene-11-carbonyl]-2-quinolyl]cyclopropyl]-4H-1,2,4-oxadiazol-5-one] was greater than 10000 nM. In the case of `Cc1cc(-n2nc3c(c2-n2ccn(-c4ccc5cnncc5c4)c2=O)[C@@H]2CC[C@H](C3)N2C(=O)c2cc3cc([C@H]4CCOC(C)(C)C4)ccc3n2[C@@]2(c3noc(=O)[nH]3)C[C@@H]2C)cc(C)c1F` [Compound 127, 3-((1S,2S)-1-(5-((S)-2,2-dimethyltetrahydro-2H-pyran-4-yl)-2-((4S,7R)-2-(4-fluoro-3,5-dimethylphenyl)-3-(2-oxo-3-(phthalazin-6-yl)-2,3-dihydro-1H-imidazol-1-yl)-2,4,5,6,7,8-hexahydro-4,7-epiminocyclohepta [c]pyrazole-9-carbonyl)-1H-indol-1-yl)-2-methylcyclopropyl)-1,2,4-oxadiazol-5 (4H)-one], the EC50 is 381 nM. The same measure, in the same setting: the value for `Cc1cc(-n2nc3c(c2-n2ccn(-c4ccc5c(cnn5C)c4F)c2=O)[C@@H]2CC[C@H](C3)N2C(=O)c2cc3cc([C@H]4CCOC(C)(C)C4)ccc3n2[C@@]2(c3nnn[nH]3)C[C@@H]2C)cc(C)c1F` [Compound 128, 1-((4S,7R)-9-(5-((S)-2,2-dimethyltetrahydro-2H-pyran-4-yl)-1-((1S,2S)-2-methyl-1-(1H-tetrazol-5-yl)cyclopropyl)-1H-indole-2-carbonyl)-2-(4-fluoro-3,5-dimethylphenyl)-2,4,5,6,7,8-hexahydro-4,7-epiminocyclohepta [c]pyrazol-3-yl)-3-(4-fluoro-1-methyl-1H-indazol-5-yl)-1H-imidazol-2 (3H)-one] was 137 nM. Still for that read-out and setting: the value for `Cc1cc(-n2nc3c(c2-n2ccn(-c4ccc5c(cnn5C)c4F)c2=O)[C@@H]2CC[C@H](C3)N2C(=O)c2cc3nc(C4CCOC(C)(C)C4)sc3cc2C2(c3noc(=O)[nH]3)CC2)cc(C)c1F` (stereo partly drawn) [Compound 129, 3-[1-[2-(2,2-dimethyltetrahydropyran-4-yl)-5-[(1S,8R)-4-(4-fluoro-3,5-dimethyl-phenyl)-3-[3-(4-fluoro-1-methyl-indazol-5-yl)-2-oxo-imidazol-1-yl]-4,5,11-triazatricyclo[6.2.1.02,6]undeca-2,5-diene-11-carbonyl]-1,3-benzothiazol-6-yl]cyclopropyl]-4H-1,2,4-oxadiazol-5-one] was greater than 10000 nM.

In the case of `Cc1cc(-n2nc3c(c2-n2ccn(-c4ccc5c(cnn5C)c4F)c2=O)[C@@H]2CC[C@H](C3)N2C(=O)c2nc3cc(C4CCOC(C)(C)C4)ccc3n2C2(c3noc(=O)[nH]3)CC2)cc(C)c1F` (stereo partly drawn) [Compound 130, 3-[1-[5-(2,2-dimethyltetrahydropyran-4-yl)-2-[(1S,8R)-4-(4-fluoro-3,5-dimethyl-phenyl)-3-[3-(4-fluoro-1-methyl-indazol-5-yl)-2-oxo-imidazol-1-yl]-4,5,11-triazatricyclo[6.2.1.02,6]undeca-2,5-diene-11-carbonyl]benzimidazol-1-yl]cyclopropyl]-4H-1,2,4-oxadiazol-5-one], the EC50 was greater than 10000 nM. Still for that read-out and setting: under `Cc1cc(-n2nc3c(c2-n2ccn(-c4ccc5nn(CCN6CCOCC6)cc5c4F)c2=O)[C@@H]2CC[C@H](C3)N2C(=O)c2cc3cc([C@H]4CCOC(C)(C)C4)ccc3n2[C@@]2(c3noc(=O)[nH]3)C[C@@H]2C)cc(C)c1F` [Compound 131, 3-[(1S,2S)-1-[5-[(4S)-2,2-dimethyltetrahydropyran-4-yl]-2-[(1S,8R)-4-(4-fluoro-3,5-dimethyl-phenyl)-3-[3-[4-fluoro-2-(2-morpholinoethyl)indazol-5-yl]-2-oxo-imidazol-1-yl]-4,5,11-triazatricyclo[6.2.1.02,6]undeca-2,5-diene-11-carbonyl]indol-1-yl]-2-methyl-cyclopropyl]-4H-1,2,4-oxadiazol-5-one] stands greater than 10000 nM; under `Cc1cc(-n2nc3c(c2-n2ccn(-c4ccc5c(cnn5C)c4F)c2=O)[C@@H]2CC[C@H](C3)N2C(=O)c2cc3sc(C4CCOC(C)(C)C4)nc3cc2C2(c3noc(=O)[nH]3)CC2)cc(C)c1F` (stereo partly drawn) [Compound 133, 3-[1-[2-(2,2-dimethyltetrahydropyran-4-yl)-6-[(1S,8R)-4-(4-fluoro-3,5-dimethyl-phenyl)-3-[3-(4-fluoro-1-methyl-indazol-5-yl)-2-oxo-imidazol-1-yl]-4,5,11-triazatricyclo[6.2.1.02,6]undeca-2,5-diene-11-carbonyl]-1,3-benzothiazol-5-yl]cyclopropyl]-4H-1,2,4-oxadiazol-5-one], greater than 10000 nM.

Still in this assay, the particulars now being: text to Table 1d, bridge atoms configured out of the plane or toward the reader.
For the compound `Cc1cc(-n2nc3c(c2-n2ccn(-c4ccc5c(cnn5C)c4F)c2=O)[C@H]2COC[C@@H](C3)N2C(=O)c2cc3cc([C@H]4CCOC(C)(C)C4)ccc3n2[C@@]2(c3noc(=O)[nH]3)C[C@@H]2C)cc(C)c1F` [Compound 120, 3-((1S,2S)-1-(5-((S)-2,2-dimethyltetrahydro-2H-pyran-4-yl)-2-((4S,8R)-3-(3-(4-fluoro-1-methyl-1H-indazol-5-yl)-2-oxo-2,3-dihydro-1H-imidazol-1-yl)-2-(4-fluoro-3,5-dimethylphenyl)-2,4,5,7,8,9-hexahydro-4,8-epiminooxocino [5,4-c]pyrazole-10-carbonyl)-1H-indol-1-yl)-2-methylcyclopropyl)-1,2,4-oxadiazol-5(4H)-one], the potency result is given as “little or no potency”.

(Values after patent US12617783B2, “Heterocyclic GLP-1R agonists” (BIOMEA FUSION, INC., priority 2024, dated 2026).)
